# Measured values as given in US20020115723A1, “Cysteine derivatives” (AJINOMOTO CO., INC., priority 1998, published 2002).
# Tests used:
# [1] = test system: NF-κB; assay: Test on the function of inhibiting the activation of NF-κB induced by ultraviolet rays (gel shift assay); assay type: cell-based, human; details: for Inhibition ratio (%) of NF-κB activation: human epidermal cells, UVB 50 mJ/cm^2
# Protocol: Test on the Function of Inhibiting the Activation of NF-κB Induced by Ultraviolet Rays.
# After 18 hours had elapsed, the culture medium was substituted by a phenol red-free medium. The cells were exposed to ultraviolet rays (UVB: 50 mJ/cm^2) from an ultraviolet irradiator “Dermaray M-DMR-80” (ex Toshiba Medical Supply Co., Ltd.). After 4 to 5 hours had elapsed, the cells were collected, and the nucleoprotein was extracted therefrom in a manner known per se in the art. From the resulting nucleoprotein, the activated NF-κB was detected in accordance with the gel shift assay. The amount of the NF-κB was determined by measuring the radioactive value of the NF-κB band with the use of a bioimaging analyzer “BAS 2000” (ex Fuji Film Co., Ltd.).
# The inhibition ratio of the activation of the NF-κB of the test compounds was calculated from the below-described formula (1).
# Inhibition ratio of NF-κB activation (%)={1−(A1-A3)/(A2-A3)}×100 (1)
# A1: radioactive value of the NF-κB upon addition of a test compound
# A2: radioactive value of NF-κB when a test compound is not added
# A3: radioactive value of NF-κB when a test compound is not added and is not exposed to ultraviolet rays.
# [2] = test system: AP-1; assay: Test on the function of inhibiting the AP-1 activation induced by ultraviolet rays (gel shift assay); assay type: cell-based, human; details: single compound
# Protocol: Test on the Function of Inhibiting the AP-1 Activation Induced by Ultraviolet Rays.
# In a similar manner to Test Example 1, a nucleoprotein was obtained. Then, the activated AP-1 was detected by the gel shift assay. The radioactive value of the AP-1 band was measured as in Test Example 1, whereby the amount of the AP-1 was determined. The AP-1 activation inhibiting ratio of the test compounds was calculated by the below-described equation (2). The results of the test compounds according to the present invention are shown below in Table 4a, while those of the comparative compounds are shown below in Table 4b.
# AP-1 activation inhibiting ratio (%)={1−(B1-B3)/(B2-B3)}×100 (2)
# B1: radioactive value of the AP-1 band upon addition of a test compound.
# B2: radioactive value of the AP-1 band when a test compound is not added.
# B3: radioactive value of the AP-1 band when a test compound is not added and is not exposed to ultraviolet rays.
# [3] = test system: Hairless mice (SKH-1); assay: Test on inhibiting function of wrinkles formation induced by ultraviolet rays (No. 2), Components (A) and (B) in combination; assay type: in vivo, mouse; design: scale not given here
# Protocol: Hairless mice (SKH-1, female, 5-6 weeks old) were exposed to ultraviolet rays (UVB) three times/week (Monday, Wednesday and Friday) for 5 weeks, each at 50 to 100 mJ/cm^2 by using the above-described “Dermaray M-DMR-80” (ex Toshiba Medical Supply Co., Ltd.). The test compound (N,N′-diacetyl-L-cystine dimethyl ester) was dissolved in a mixed solvent of propylene glycol, ethanol and water, and was applied to the back portion of each of the mice in an amount of 100 μl, 30 to 60 minutes before exposure to ultraviolet rays, just after the completion of the exposure, and on the days free from exposure to ultraviolet rays (Sunday, Tuesday, Thursday and Saturday). From two weeks after the exposure had started, the wrinkles formed on the back portion of each mouse were evaluated once a week based on the below-described standards, and they were indicated as scores. In addition, the function of the inventive compound for inhibiting wrinkle formation induced by ultraviolet rays was judged based on the below-described judging standards.
# Test on Inhibiting Function of Wrinkles Formation Induced by Ultraviolet Rays (No. 2)
# Function of suppressing ultraviolet ray-induced wrinkles formation by the synergistic effects when Components (A) and (B) were used in combination, was judged in a similar manner to Test Example 2. Fifteen to twenty mice were divided into 4 groups, that is, a 1st group to which a mixed solvent of propylene glycol, ethanol and water was to be applied, a 2nd group to which a solution of only Component (A) dissolved in the above-described solvent was to be applied, a 3rd group to which a solution of only Component (B) dissolved in the above-described solvent was to be applied, and a 4th group to which a solution of both Components (A) and (B) dissolved in the above-described solvent was to be applied. An average score of each group was determined.
SMILES,Inhibition ratio (%) of NF-κB activation ([1]; addition concentration 0.01 mM) [%],Inhibition ratio (%) of NF-κB activation ([1]; addition concentration 0.1 mM) [%],also measured
"COC(=O)[C@H](CCSSCC[C@H](NC(C)=O)C(=O)OC)NC(C)=O (racemic) [N,N′-diacetyl -DL-homocystine dimethyl ester]",10,46,
Cc1c(C)c2c(c(C)c1O)CCC(C)(CCCC(C)CCCC(C)CCCC(C)C)O2 (racemic) [dl-α-tocopherol],,,"AP-1 activation Inhibiting ratio (%) ([2]; 10 μM): 5%; AP-1 activation Inhibiting ratio (%) ([2]; 100 μM): −1%; Wrinkle score (group average) ([3]; 5% alone, 2nd week): 2.0; Wrinkle score (group average) ([3]; 5% alone, 3rd week): 3.0; Wrinkle score (group average) ([3]; 5% alone, 4th week): 2.5; Wrinkle score (group average) ([3]; 5% alone, 5th week): 3.5"
CCCCC(CC)COC(=O)C=Cc1ccc(OC)cc1 (stereo not shown) [2-ethylhexyl p-methoxycinnamate],,,"AP-1 activation Inhibiting ratio (%) ([2]; 10 μM): −20%; AP-1 activation Inhibiting ratio (%) ([2]; 100 μM): 11%; Wrinkle score (group average) ([3]; 3% alone, 2nd week): 0.0; Wrinkle score (group average) ([3]; 3% alone, 3rd week): 0.5; Wrinkle score (group average) ([3]; 3% alone, 4th week): 1.5; Wrinkle score (group average) ([3]; 3% alone, 5th week): 0.5"
COc1ccc(C(=O)CC(=O)c2ccc(C(C)(C)C)cc2)cc1 [4-tert-butyl-4′-methoxybenzoylmethane],,,AP-1 activation Inhibiting ratio (%) ([2]; 1 μM): −14%; AP-1 activation Inhibiting ratio (%) ([2]; 10 μM): 17%
O=C1O[C@H]([C@@H](O)CO)C(O)=C1O [L (+) ascorbic acid],,,"AP-1 activation Inhibiting ratio (%) ([2]; 0.1 mM): 1%; AP-1 activation Inhibiting ratio (%) ([2]; 1 mM): 0%; Wrinkle score (group average) ([3]; 5% alone, 2nd week): 1.0; Wrinkle score (group average) ([3]; 5% alone, 3rd week): 2.0; Wrinkle score (group average) ([3]; 5% alone, 4th week): 4.0; Wrinkle score (group average) ([3]; 5% alone, 5th week): 4.0"
CCOC(=O)[C@@H](N)CSSC[C@H](N)C(=O)OCC [L-cystine diethyl ester],,50,Inhibition ratio (%) of NF-κB activation ([1]; addition concentration 0.5 mM): >100%
"CC(=O)N[C@@H](CSSC[C@H](NC(C)=O)C(=O)O)C(=O)O [N,N′ -diacetyl-L-cystine, N,N′-diacetyl-L-cystine, reference compound]",,,Inhibition ratio (%) of NF-κB activation ([1]; addition concentration 10 mM): 48%; Inhibition ratio (%) of NF-κB activation ([1]; addition concentration 30 mM): 67%
"CCCC(=O)N[C@@H](CSSC[C@H](NC(=O)CCC)C(N)=O)C(N)=O [N,N′-di(n-butyryl)-L-cystine diamide]",45,11,
"CCCC(=O)N[C@@H](CSSC[C@H](NC(=O)CCC)C(=O)OC)C(=O)OC [N,N′-di(n-butyryl)-L-cystine dimethyl ester]",52,79,
"CCCCCCCCCC(=O)N[C@@H](CSSC[C@H](NC(=O)CCCCCCCCC)C(=O)OC)C(=O)OC [N,N′-di(n-decanoyl)-L-cystine dimethyl ester]",56,68,
"CCCCCCC(=O)N[C@@H](CSSC[C@H](NC(=O)CCCCCC)C(=O)OC)C(=O)OC [N,N′-di(n-heptanoyl)-L-cystine dimethyl ester]",25,103,
"CCCCCC(=O)N[C@@H](CSSC[C@H](NC(=O)CCCCC)C(=O)OC)C(=O)OC [N,N′-di(n-hexanoyl)-L-cystine dimethyl ester]",43,77,
"CCCCCCCC(=O)N[C@@H](CSSC[C@H](NC(=O)CCCCCCC)C(=O)OC)C(=O)OC [N,N′-di(n-octanoyl)-L-cystine dimethyl ester]",33,91,
"CCC(=O)N[C@@H](CSSC[C@H](NC(=O)CC)C(=O)OC)C(=O)OC [N,N′-di(n-propionyl)-L-cystine dimethyl ester]",17,54,
"CCCCC(=O)N[C@@H](CSSC[C@H](NC(=O)CCCC)C(N)=O)C(N)=O [N,N′-di(n-valeryl)-L-cystine diamide]",8,53,
"CCCCC(=O)N[C@@H](CSSC[C@H](NC(=O)CCCC)C(=O)OC)C(=O)OC [N,N′-di(n-valeryl)-L-cystine dimethyl ester]",18,64,
"CCOC(=O)[C@H](CSSC[C@H](NC(C)=O)C(=O)OCC)NC(C)=O [N,N′-diacetyl-L-cystine diethyl ester]",37,107,
"CC(=O)N[C@@H](CSSC[C@H](NC(C)=O)C(=O)OC(C)C)C(=O)OC(C)C [N,N′-diacetyl-L-cystine diisopropyl ester]",19,48,
"CCCCCCCCCCCC(=O)N[C@@H](CSSC[C@H](NC(=O)CCCCCCCCCCC)C(=O)OC)C(=O)OC [N,N′-dilauroyl-L-cystine dimethyl ester]",52,59,
"COC(=O)[C@H](CSC(C)=O)NC(C)=O [N,S-diacetyl-L-cystine methyl ester]",20,31,
CCOC(=O)[C@H](CSSC[C@H](N)C(=O)O)NC(C)=O [N-acetyl-L-cystine ethyl ester],31,74,
CC(=O)N[C@@H](CSSC[C@H](N)C(=O)O)C(=O)OC(C)C [N-acetyl-L-cystine isopropylester],21,82,
COC(=O)[C@H](CSSC[C@H](N)C(=O)O)NC(C)=O [N-acetyl-L-cystine methyl ester],28,95,
CCCCCCCCCCCC(=O)N[C@@H](CSSC[C@H](N)C(=O)O)C(=O)OC [N-lauroyl-L-cystine methyl ester],36,43,
CCCCCCCCCCCC(=O)N[C@@H](CSSC[C@H](N)C(=O)O)C(=O)O [N-lauroyl-L-cystine],,14,Inhibition ratio (%) of NF-κB activation ([1]; addition concentration 0.5 mM): 86%
O=C(O)c1ccccc1O [Salicylic acid],,,"Wrinkle score (group average) ([3]; 5% alone, 2nd week): 2.0; Wrinkle score (group average) ([3]; 5% alone, 3rd week): 1.5; Wrinkle score (group average) ([3]; 5% alone, 4th week): 1.5; Wrinkle score (group average) ([3]; 5% alone, 5th week): 2.5"
CC1(C)[C@@H](O)CC[C@]2(C)[C@H]3C(=O)C=C4[C@@H]5C[C@@](C)(C(=O)O)CC[C@]5(C)CC[C@@]4(C)[C@]3(C)CC[C@@H]12 [glycyrrhetinic acid],,,AP-1 activation Inhibiting ratio (%) ([2]; 10 μM): 2%; AP-1 activation Inhibiting ratio (%) ([2]; 100 μM): −104%
CC1(C)[C@@H](O[C@H]2O[C@H](C(=O)O)[C@@H](O)[C@H](O)[C@H]2O[C@@H]2O[C@H](C(=O)O)[C@@H](O)[C@H](O)[C@H]2O)CC[C@]2(C)[C@H]3C(=O)C=C4[C@@H]5C[C@@](C)(C(=O)O)CC[C@]5(C)CC[C@@]4(C)[C@]3(C)CC[C@@H]12 [glycyrrhizic acid],,,AP-1 activation Inhibiting ratio (%) ([2]; 0.1 mM): 3%; AP-1 activation Inhibiting ratio (%) ([2]; 1 mM): −70%
"S=C(S)N1CCCC1 [pyrrolidine dithiocarbamate, reference compound]",9,,Inhibition ratio (%) of NF-κB activation ([1]; addition concentration 0.005 mM): −2%; NF-κB activation inhibiting function (in words) ([1]; summary of Tables 2a and 2b): did not exhibit the NF-κKB activation inhibiting function
